Laboratory results published in patent US11591292B2, “Preparation of cationic surfactants” (Saudi Arabian Oil Company, priority 2020, dated 2023).

Legend:
Type in all cases: physicochemical
[1] = Interfacial tension (IFT) of surfactants in seawater; details: for IFT 500 mg/L: surfactant 500 mg/L; for IFT 1000 mg/L: surfactant 1000 mg/L; for IFT 2000 mg/L: surfactant 2000 mg/L
Text: (§1) The properties of the surfactants in seawater including compatibility, critical micelle concentration (CMC) and the interfacial tension were investigated.

[2] = Compatibility of surfactants in seawater; design: key: A = clear; B = phase separation; details: in seawater (total salinity 57,670 ppm)
Text: as §1

[3] = Critical micelle concentration (CMC) in seawater
Text: as §1

Structure (SMILES) | IFT 500 mg/L [1] | IFT 1000 mg/L [1] | IFT 2000 mg/L [1] | Compatibility 25° C. [2] | Compatibility 95° C. [2] | CMC [3]
CCCCCCCC/C=C\CCCCCCCCCCCC(=O)NCCC[N+](C)(C)CC(O)CO.[Cl-] (stereo not drawn) [C22APDAC, Erucyl amidopropyl-2,3-dihydroxypropyl ammonium chloride] | 2.11 × 10^−4 mN/m | 1.21 × 10^−4 mN/m | 1.1 × 10^−3 mN/m | A | A | 9.58e-06 mol/L
CCCCCCCC/C=C\CCCCCCCCCCCC(=O)NCCC[N+](C)(C)CC(O)COC(C)=O.[Cl-] (stereo not drawn) [C22APHAAC, erucyl amidopropyl-2-hydroxy-3-acetoxypropyl ammonium chloride] | 1.11 mN/m | 4.83 × 10^−3 mN/m | 2.37 × 10^−3 mN/m | A | B | 1.09e-05 mol/L
CCCCCCCC/C=C\CCCCCCCCCCCC(=O)NCCC[N+](C)(C)CC(O)COC(=O)C(F)(F)F.[Cl-] (stereo not drawn) [C22APHFAC, Erucyl amidopropyl-2-hydroxy-3-(2,2,2 trifluoroacetoxy) propyl ammonium chloride] | 0.31 mN/m | 1.87 × 10^−2 mN/m | 7.12 × 10^−3 mN/m | A | B | 1.08e-05 mol/L
CCCCCCCC/C=C\CCCCCCCCCCCC(=O)NCCC[N+](C)(C)CC(O)COC(=O)CC.[Cl-] (stereo not drawn) [C22APHPAC, Erucyl amidopropyl-2-hydroxy-3-propoionyloxy propyl ammonium chloride] | 5.7 × 10^−2 mN/m | 7 × 10^−3 mN/m | 4.2 × 10^−2 mN/m | A | B | 1.25e-05 mol/L
